This is an account of results in patent US8278469B2, “17-hydroxy-17-pentafluoroethyl-estra-4,9(10)-dien-11-aryl derivatives, method of production thereof and use thereof for the treatment of diseases” (Bayer Pharma Aktiengesellschaft, priority 2009, dated 2012).

Structures are written as SMILES.

Test [1] has as its target T1, human progesterone receptor A (PR-A) (Homo sapiens, UniProt P06401).
T1 construct: expressed in transfected cells; host or cells: SK-N-MC human neuroblastoma cells, stably transfected with pRChPR-A-neo and pMMTV-LUC
T1 sequence (P06401 1-769 isoform P06401-2): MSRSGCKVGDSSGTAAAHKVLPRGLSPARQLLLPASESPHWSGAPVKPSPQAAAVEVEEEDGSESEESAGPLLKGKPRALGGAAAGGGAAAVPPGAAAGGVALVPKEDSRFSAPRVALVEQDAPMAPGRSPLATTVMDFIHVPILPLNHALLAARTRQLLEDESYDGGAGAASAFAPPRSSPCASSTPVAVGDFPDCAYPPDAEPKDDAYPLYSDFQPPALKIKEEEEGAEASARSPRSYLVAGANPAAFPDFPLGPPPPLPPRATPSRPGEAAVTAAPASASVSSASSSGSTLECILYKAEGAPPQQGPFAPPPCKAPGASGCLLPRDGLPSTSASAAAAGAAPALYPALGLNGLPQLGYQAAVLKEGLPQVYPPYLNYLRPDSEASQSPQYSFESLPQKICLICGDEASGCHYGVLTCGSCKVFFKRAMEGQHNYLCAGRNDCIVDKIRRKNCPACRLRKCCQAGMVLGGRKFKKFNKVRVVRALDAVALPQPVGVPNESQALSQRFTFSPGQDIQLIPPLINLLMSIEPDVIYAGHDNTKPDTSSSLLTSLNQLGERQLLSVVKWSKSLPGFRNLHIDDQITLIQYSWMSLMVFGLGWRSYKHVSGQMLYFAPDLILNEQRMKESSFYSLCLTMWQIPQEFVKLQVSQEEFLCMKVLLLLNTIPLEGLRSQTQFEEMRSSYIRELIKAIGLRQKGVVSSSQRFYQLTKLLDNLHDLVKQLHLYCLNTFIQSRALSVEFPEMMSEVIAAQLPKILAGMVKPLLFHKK
The test is described as follows: Progesterone receptor-antagonistic action in stable transfectants of SK-N-MC cells with human PR-A and MTV-LUC reporter. Type of test: cell-based. As for the experimental part:
(§1) Progesterone Receptor-Antagonistic Action in Stable Transfectants of Human Neuroblastoma Cells (SK-N-MC Cells) with the Human Progesterone A or Progesterone B Receptor and an MTV-LUC Reporter Construct
(§2) SK-N-MC cells (human neuroblastoma cells), which have been stably transfected with plasmids, which express the human progesterone receptor B (pRChPR-B-neo) or the human progesterone receptor A (pRChPR-A-neo) and a reporter construct (pMMTV-LUC), were incubated for 24 hours either in the absence (negative control) or in the presence of increasing amounts of the respective test compound (0.01 nmol/l, 0.1 nmol/l, 1 nmol/l, 10 nmol/l, 100 nmol/l and 1 μmol/l), in order to determine the agonistic efficacy. As positive control of reporter gene induction, the cells were treated with the synthetic gestagen promegestone (0.01 nmol/l, 0.1 nmol/l, 1 nmol/l, 10 nmol/l, 100 nmol/l and 1 μmol/l). For determination of the antagonistic activity, the cells were treated with 0.1 nmol/l promegestone and additionally with increasing amounts of the respective test compound (0.01 nmol/l, 0.1 nmol/l, 1 nmol/l, 10 nmol/l, 100 nmol/l and 1 μmol/l). The activity of the LUC reporter gene (LUC=luciferase) was determined in the cell lysates and was measured as RLU (relative light units). All measured values are given as percentage efficacy and as EC50 or IC50 concentrations.
(§3) 11β-(4-Acetylphenyl)-20,20,21,21,21-pentafluoro-17-hydroxy-19-nor-17α-pregna-4,9-dien-3-one and 20,20,21,21,21-pentafluoro-17-hydroxy-11β-[4-(hydroxyacetyl)phenyl]-19-nor-17α-pregna-4,9-dien-3-one, very potent and therefore preferred examples from WO98/34947 and WO2008/058767, were tested as comparative compounds along with the test compound.

Test [2] addresses T2, human progesterone receptor B (PR-B) (Homo sapiens, UniProt P06401).
T2 construct: expressed in transfected cells; host or cells: SK-N-MC human neuroblastoma cells, stably transfected with pRChPR-B-neo and pMMTV-LUC
T2 sequence (P06401 1-933): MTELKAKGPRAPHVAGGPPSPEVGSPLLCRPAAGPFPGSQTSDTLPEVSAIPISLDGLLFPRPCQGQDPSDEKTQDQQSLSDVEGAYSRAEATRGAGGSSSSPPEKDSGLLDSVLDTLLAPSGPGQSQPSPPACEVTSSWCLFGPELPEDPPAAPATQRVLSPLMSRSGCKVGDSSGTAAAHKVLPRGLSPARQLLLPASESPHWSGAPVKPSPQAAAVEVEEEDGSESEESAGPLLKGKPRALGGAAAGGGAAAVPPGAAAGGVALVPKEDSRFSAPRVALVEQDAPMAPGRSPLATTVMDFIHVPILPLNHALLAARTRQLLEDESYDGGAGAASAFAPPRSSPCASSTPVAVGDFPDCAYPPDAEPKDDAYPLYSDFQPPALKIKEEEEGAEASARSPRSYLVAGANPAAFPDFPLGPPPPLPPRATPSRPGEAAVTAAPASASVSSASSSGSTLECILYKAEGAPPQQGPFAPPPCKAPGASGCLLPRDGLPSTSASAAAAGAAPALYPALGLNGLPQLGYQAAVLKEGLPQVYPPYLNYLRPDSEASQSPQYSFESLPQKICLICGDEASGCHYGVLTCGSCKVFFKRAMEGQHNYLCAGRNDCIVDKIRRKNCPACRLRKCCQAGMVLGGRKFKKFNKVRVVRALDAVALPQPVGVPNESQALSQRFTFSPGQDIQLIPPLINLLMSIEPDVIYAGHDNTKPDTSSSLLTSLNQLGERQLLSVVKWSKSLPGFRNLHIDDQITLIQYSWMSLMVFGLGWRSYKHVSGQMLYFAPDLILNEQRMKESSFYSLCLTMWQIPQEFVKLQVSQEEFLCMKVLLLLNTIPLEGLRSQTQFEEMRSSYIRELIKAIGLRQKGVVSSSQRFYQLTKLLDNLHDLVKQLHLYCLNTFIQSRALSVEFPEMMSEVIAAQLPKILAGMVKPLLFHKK
The test is described as follows: Progesterone receptor-antagonistic action in stable transfectants of SK-N-MC cells with human PR-B and MTV-LUC reporter. Type of test: cell-based. As to conditions: SK-N-MC, 24 h, read-out: Progesterone receptor B (PR-B) Efficacy. The method, then:
as §1, §2, §3

`C[C@]12C[C@H](c3ccc(S(C)(=O)=O)cc3)C3=C4CCC(=O)C=C4CC[C@H]3[C@@H]1CC[C@@]2(O)C(F)(F)C(F)(F)F` [Example 4, (11β,17β)-17-Hydroxy-11-[4-(methylsulphonyl)phenyl]-17-(pentafluoroethyl)estra-4,9-dien-3-one]: the Emax amounted to 100% in test [1] (SK-N-MC, 24 h, read-out: Progesterone receptor A (PR-A) Efficacy) and 100% in test [2]. Besides, the IC50 in test [1] (antagonistic activity against 0.1 nmol/l promegestone, SK-N-MC cells, 24 hours, LUC reporter, read-out: Progesterone receptor A (PR-A) Potency IC50) turned out to be 0.096 nM.

As usually defined, the IC50 is the point on the concentration scale where inhibition reaches its midpoint.
